From patent US20090029992A1, “SUBSTITUTED PYRAZOLE COMPOUNDS” (priority 2007, published 2009) come the findings set out here.

Molecules are shown by their SMILES.

Experiment [1] concerns the target T1, N-terminal GST-tagged recombinant human Flt3, residues 564-end (Homo sapiens, UniProt P36888).
T1 construct: recombinant human Flt3, residues 564-end; GST (N); purchased Upstate USA Inc, 706 Forest Street, Charlottesville, Va
T1 sequence (P36888 564-993 limits assumed): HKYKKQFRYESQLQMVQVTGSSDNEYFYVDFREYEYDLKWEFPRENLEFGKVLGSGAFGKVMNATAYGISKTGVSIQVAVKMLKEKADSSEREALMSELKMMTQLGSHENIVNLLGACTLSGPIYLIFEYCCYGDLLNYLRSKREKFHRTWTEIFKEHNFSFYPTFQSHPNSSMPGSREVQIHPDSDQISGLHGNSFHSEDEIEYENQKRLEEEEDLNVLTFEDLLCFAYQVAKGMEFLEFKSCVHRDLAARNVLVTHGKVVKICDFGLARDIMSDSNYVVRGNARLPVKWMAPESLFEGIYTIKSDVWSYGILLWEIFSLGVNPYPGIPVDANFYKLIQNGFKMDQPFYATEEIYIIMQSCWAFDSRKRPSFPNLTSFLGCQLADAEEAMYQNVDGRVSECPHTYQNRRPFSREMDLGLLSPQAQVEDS
The experiment is described as follows: Flt3 kinase inhibition assay (33P-ATP filter assay). The experiment is classed as biochemical. The method, then: (§1) Compounds were assayed for Flt3 kinase inhibitory activity using N-terminal GST-tagged recombinant human Flt3, residues 564-end (Upstate USA Inc, 706 Forest Street, Charlottesville, Va.). Serial dilutions of compound were assayed in a final reaction volume of 25 μL by incubating a solution of the above Flt3 kinase (5-10 mU), 8 mM MOPS (3-(N-morpholino) propanesulfonic acid) pH 7.0, 0.2 mM EDTA (ethylenediamine tetracetic acid), 50 μM amino acid sequence EAIYAAPFAKKK (Upstate USA Inc, 706 Forest Street, Charlottesville, Va.), and 10 mM magnesium acetate and [γ-^33P-ATP] (specific activity of about 500 cpm/μmol, concentration as required). The reaction was initiated by the addition of the magnesium acetate and [γ-^33P-ATP] mixture. After incubation for 40 minutes at room temperature, the reaction was stopped by the addition of 5 μL of a 3% phosphoric acid solution. A 10 μL aliquote of the reaction was then spotted onto a P30 filtermat (PerkinElmer, Wellesley, Mass.) and washed three times for five minutes in 75 mM phosphoric acid and once in methanol prior to drying and scintillation counting. Inhibition of Flt3 activity was determined by comparison to assays that contained no inhibitor.

In a further experiment the test system is HCT116 cells. The experiment can be described thus: Whole cell cytotoxicity assay, Sulforhodamine B. Format: cell-based. The conditions noted are these: Homo sapiens, HCT-116, HCT116, 96 hours incubation, SRB; for GI50: read-out: GI50 HCT116 cell growth; for IC50: read-out: IC50 values in this assay (HCT116 cell growth). Here is the method:
Human tumor-derived cell lines, HCT116 or MCF7 (ATCC) were plated in a 96 well plate in DMEM containing 10% fetal bovine serum and 2 mM L-glutamine at a density of 500 HCT116 cells or 1,000 MCF7 cells per well and incubated at 37° C., 5% CO2, for 24 hours prior to the addition of experimental compounds. Compounds were added using the dilution series indicated to duplicate plates and the cells were incubated in media plus compound for 96 hours. An additional plate was fixed in 10% TCA at the time of the addition of compound to provide a measurement of the cell population at time zero, the time of drug addition. Following the 96 hour incubation, cells were fixed in situ by gently aspirating off the culture media and then adding 50 ul of ice cold 10% TCA per well and incubation at 4° C. for 60 minutes. The plates were washed with tap water five times and allowed to air dry for 5 minute. 50 ul of a 0.4% (w/v) Sulforhodamine B solution in 1% (v/v) acetic acid was added per well and the cells were incubated for 30 minutes at room temperature. Following staining, plates were washed four times with 1% acetic acid to remove any unbound dye and then allowed to air dry for 5 minutes. The stain was solubilized with 100 ul of 10 mM Tris pH 10.5 per well and placed on an orbital rotator for 5 minutes. The absorbance was read at 570 nm. Percentage growth was calculated using the absorbance readings from the time zero plate (Tz) and the dilution series plate […] which included a column of cells grown in media without compound as a control (C) using the formulas:
[(Ti−Tz)/(C−Tz)]×100 for concentrations for which Ti>/=Tz
[(Ti−Tz)/Tz]×100 for concentrations for which Ti<Tz.
Three dose response parameters were calculated for each experimental agent. Growth inhibition of 50% (GI50) was calculated from [(Ti−Tz)/(C−Tz)]×100=50, which was the drug concentration resulting in a 50% reduction in the net protein increase (as measured by SRB staining) in control cells during the drug incubation. The drug concentration resulting in total growth inhibition (TGI) was calculated from Ti=Tz. The LC50 (concentration of drug resulting in a 50% reduction in the measured protein at the end of the drug treatment as compared to that at the beginning) indicating a net loss of cells following treatment ws calculated from [(Ti−Tz)/Tz]×100=−50. Values are calculated for each of these three parameters if the level of activity was reached; however, if the effect was not reached or was exceeded, the value for that parameter is expressed as greater or less than the maximum or minimum concentration tested.

In experiment [2] the target is T2, N-terminal His6-tagged recombinant human KDR, residues 790-end (Homo sapiens, UniProt P35968).
T2 construct: recombinant human KDR, residues 790-end; His6 (N); purchased Upstate USA Inc, 706 Forest Street, Charlottesville, Va
T2 sequence (P35968 790-1356 limits assumed): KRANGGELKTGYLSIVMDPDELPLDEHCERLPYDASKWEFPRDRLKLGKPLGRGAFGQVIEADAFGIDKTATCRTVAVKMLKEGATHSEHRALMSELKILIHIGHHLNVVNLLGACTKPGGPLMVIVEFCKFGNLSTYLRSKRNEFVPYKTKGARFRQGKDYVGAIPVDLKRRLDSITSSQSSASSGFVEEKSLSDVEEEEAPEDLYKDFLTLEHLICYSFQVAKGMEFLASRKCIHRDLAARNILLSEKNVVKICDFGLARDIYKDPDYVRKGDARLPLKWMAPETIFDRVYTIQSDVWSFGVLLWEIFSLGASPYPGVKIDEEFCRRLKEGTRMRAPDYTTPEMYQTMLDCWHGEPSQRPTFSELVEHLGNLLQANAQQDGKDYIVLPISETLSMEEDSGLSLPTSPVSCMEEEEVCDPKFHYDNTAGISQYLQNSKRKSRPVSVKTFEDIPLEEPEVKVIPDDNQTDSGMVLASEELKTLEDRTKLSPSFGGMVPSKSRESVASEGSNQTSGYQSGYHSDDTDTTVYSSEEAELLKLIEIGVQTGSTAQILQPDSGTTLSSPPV
The experiment can be described thus: KDR kinase inhibition assay (33P-ATP filter assay). The note with it: group with IC50 greater than 100 nM. Format: biochemical. The method, then:
as §1, with “KDR” for “Flt3”, “His6-tagged” for “GST-tagged”, “KDR,” for “Flt3,”, “790-end” for “564-end”, “0.33 mg/mL myelin basic protein” for “50 μM amino acid sequence EAIYAAPFAKKK”

The mark [3] stands for this setting: group with IC50 greater than 100 nM.

Broadly, the IC50 is the concentration that gives 50% inhibition. Usually GI50 stands for the concentration giving 50% growth inhibition.

For the compound `Cc1cc(Nc2cc(NC3CCOCC3)nc(-c3c(C)cccc3C)n2)n[nH]1` [Example 199, 2-(2,6-dimethylphenyl)-N^4-(5-methyl-1H-pyrazol-3-yl)-N^6-(tetrahydro-2H-pyran-4-yl)pyrimidine-4,6-diamine], the IC50 in experiment [1] (setting [3]) is at most 1000 nM. As for `Cc1cc(Nc2cc(N3CCN(C)CC3)nc(-c3cc(C(F)(F)F)cc(C(F)(F)F)c3)n2)n[nH]1` [Example 173, 2-(3,5-bis(trifluoromethyl)phenyl)-N-(5-methyl-1H-pyrazol-3-yl)-6-(4-methylpiperazin-1-yl)pyrimidin-4-amine], the 50% growth inhibitory concentration (GI50) in the experiment on HCT116 cells is at most 1000 nM. In addition, in experiment [1] (40 minutes at room temperature), the half-maximal inhibitory concentration (IC50) was at most 100 nM.

On to `Cc1cc(Nc2cc(N(C)CCN(C)C)nc(-c3c(C)cccc3C)n2)n[nH]1` [Example 195, N^4-(2-(dimethylamino)ethyl)-2-(2,6-dimethylphenyl)-N^4-methyl-N^6-(5-methyl-1H-pyrazol-3-yl)pyrimidine-4,6-diamine], for which, in experiment [1] (setting [3]), the IC50 is at most 1000 nM.

Turning to `COc1ccccc1-c1nc(Nc2cc(C)[nH]n2)cc(NC2CCOCC2)n1` [Compound 30, 2-(2-methoxyphenyl)-N^4-(5-methyl-1H-pyrazol-3-yl)-N^6-(tetrahydro-2H-pyran-4-yl)pyrimidine-4,6-diamine], in experiment [2], the half-inhibitory concentration (IC50) was at most 1000 nM. For `Cc1cc(Nc2cc(N(C)CCN(C)C)nc(-c3cccc4c3OCCO4)n2)n[nH]1` [Example 143, 2-(2,3-dihydrobenzo[b][1,4]dioxin-5-yl)-N^4-(2-(dimethylamino)ethyl)-N^4-methyl-N^6-(5-methyl-1H-pyrazol-3-yl)pyrimidine-4,6-diamine], the values for the IC50 (in experiment [2]; in the experiment on HCT116 cells; in experiment [1] (40 minutes at room temperature)) were at most 1000 nM, 1000 to 10000 nM and at most 100 nM, respectively. Regarding `COCCN(C)c1cc(Nc2cc(C)[nH]n2)nc(-c2cc(C)ccc2C)n1` [Example 202, 2-(2,5-dimethylphenyl)-N^4-(2-methoxyethyl)-N^4-methyl-N^6-(5-methyl-1H-pyrazol-3-yl)pyrimidine-4,6-diamine], the results for the half-maximal inhibitory concentration (IC50) (with HCT116 cells; in experiment [1] (40 minutes at room temperature)) were 1000 to 10000 nM and at most 100 nM, respectively. Regarding `COc1ccccc1-c1nc(Nc2cc(C)[nH]n2)cc(N(C)CCN(C)C)n1` [Compound 56, N^4-(2-(dimethylamino)ethyl)-2-(2-methoxyphenyl)-N^4-methyl-N^6-(5-methyl-1H-pyrazol-3-yl)pyrimidine-4,6-diamine], the IC50 in experiment [2] was at most 1000 nM; in experiment [1] (40 minutes at room temperature), at most 100 nM. Further, the concentration for 50% growth inhibition (GI50) in the experiment with HCT116 cells was at most 1000 nM. For `Cc1cc(Nc2cc(N3CCN(C)CC3)nc(-c3c(C)cccc3C)n2)n[nH]1` [Example 194, 2-(2,6-dimethylphenyl)-N-(5-methyl-1H-pyrazol-3-yl)-6-(4-methylpiperazin-1-yl)pyrimidin-4-amine], the half-maximal inhibitory concentration (IC50) in experiment [1] (setting [3]) is at most 1000 nM. On to `COCCN(C)c1cc(Nc2cc(C)[nH]n2)nc(-c2ccccc2OC)n1` [Compound 69, N^4-(2-methoxyethyl)-2-(2-methoxyphenyl)-N^4-methyl-N^6-(5-methyl-1H-pyrazol-3-yl)pyrimidine-4,6-diamine], for which the half-inhibitory concentration (IC50) was at most 1000 nM in experiment [2], 1000 to 10000 nM with HCT116 cells and at most 1000 nM in experiment [1] (setting [3]). On to `Cc1cc(Nc2cc(N3CCN(C)CC3)nc(-c3ccc(S(C)(=O)=O)cc3)n2)n[nH]1` [Compound 95, N-(5-methyl-1H-pyrazol-3-yl)-6-(4-methylpiperazin-1-yl)-2-(4-(methylsulfonyl)phenyl)pyrimidin-4-amine], for which the 50% growth inhibitory concentration (GI50) with HCT116 cells was at most 1000 nM. For the compound `Cc1ccc(C)c(-c2nc(Nc3cc(C)[nH]n3)cc(N(C)CCN(C)C)n2)c1` [Example 207, N^4-(2-(dimethylamino)ethyl)-2-(2,5-dimethylphenyl)-N^4-methyl-N^6-(5-methyl-1H-pyrazol-3-yl)pyrimidine-4,6-diamine], the IC50 was at most 1000 nM in experiment [2] and at most 100 nM in experiment [1] (40 minutes at room temperature).
